Values of other authors as cited in patent US11229703B2, “Radiotherapy improvements” (NOXOPHARM LIMITED, priority 2016, dated 2022).

Legend:
[1] = system: cancer, especially metastatic disease involving solid tumours; conditions: compound alone, various clinical trials
[2] = system: hormone refractory prostate cancer; conditions: males with hormone refractory prostate cancer given idronoxil ranging from 20 to 400 mg; 6 months from treatment

SMILES	complete or partial response to cancer [1]	disease progression [2]
O=c1c(-c2ccc(O)cc2)coc2cc(O)cc(O)c12 [genestein, reference compound]	unable to provide either a complete or partial response	
Oc1ccc(C2=Cc3ccc(O)cc3OC2)cc1 [idronoxil, 2H-1-Benzopyran-7-0,1,3-(4-hydroxyphenyl)]	unable to provide either a complete or partial response	disease had progressed in most individuals by 6 months
